According to patent publication US10179123B2, “2-aryl- and 2-arylalkyl-benzimidazoles as mIDH1 inhibitors” (BAYER PHARMA AKTIENGESELLSCHAFT, priority 2015, dated 2019):

Legend:
[1] = biological target: IDH1 R132H enzyme (Homo sapiens (Human), UniProt O75874, R132H); experiment: Mutant IDH1 R132H biochemical assay; settings: NADPH consumption, luminescent readout; 1.5 nM enzyme, 1 μM NADPH, 250 μM α-KG, 30 minutes, 32° C.
Description: NADPH consumption was measured by luminescent readout. […] The final DMSO concentration was 2.4%. […] Luminescence was measured on a luminescent reader (10 seconds measuring time, 1 second integration period, 30% sensitivity). The decrease in luminescence is proportional to mIDH1 activity. IC50 values are determined by interpolation from plots of relative luminescence versus inhibitor concentration.

[2] = biological target: mutated isocitrate dehydrogenase (mIDH) protein, LN229 R132H cells (Homo sapiens (Human), UniProt O75874, R132H); experiment: Mutant IDH1 cellular assay (2-HG in medium of LN229 R132H cells); assay type: cell-based; settings: 2-HG levels in medium, 24 hours
Description: Mutant IDH1 Cellular Assay
They were harvested by trypsin and seeded into 96-well plates. Cells were incubated overnight at 37° C. in 5% CO2. The next day test compounds were added to each cell well. The final concentration of DMSO was 0.1% and DMSO controls were included. The plates were then placed in an incubator for 24 hours.
2-HG was measured according to Balss et al. (Acta Neuropathol (2012) 124: 883-891). Briefly, HClO4 was added to each well and the plates were centrifuged. Aliquots are removed and incubated with hydroxyglutarate dehydrogenase (HGDH), diaphorase, NAD+, and resazurin. The conversion of resazurin to resorufin was detected by fluorescence spectroscopy at Ex 540 nm Em 600 nm. The increase in fluorescence is proportional to 2-HG production. IC50 values are determined by interpolation from plots of relative fluorescence vs inhibitor concentration.

Chain of mutated isocitrate dehydrogenase (mIDH) protein, LN229 R132H cells (O75874 whole entry R132H): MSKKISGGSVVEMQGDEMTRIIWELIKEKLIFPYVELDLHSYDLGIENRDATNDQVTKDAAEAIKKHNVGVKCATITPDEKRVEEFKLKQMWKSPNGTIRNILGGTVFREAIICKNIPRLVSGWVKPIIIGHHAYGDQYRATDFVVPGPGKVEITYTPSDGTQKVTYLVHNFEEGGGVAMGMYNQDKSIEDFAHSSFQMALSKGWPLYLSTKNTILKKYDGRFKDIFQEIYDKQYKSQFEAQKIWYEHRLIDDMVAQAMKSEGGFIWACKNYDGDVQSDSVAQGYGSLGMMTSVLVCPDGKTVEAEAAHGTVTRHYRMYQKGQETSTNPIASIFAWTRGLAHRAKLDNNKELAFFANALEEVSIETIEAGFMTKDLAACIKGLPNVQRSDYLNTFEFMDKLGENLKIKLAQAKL
Chain of IDH1 R132H enzyme (O75874 whole entry R132H): as above

Compound | IC50 [1] [nM] | IC50 [2] [nM]
COC(=O)c1ccc2c(c1)nc(Cc1ccc(C(C)C)cc1)n2[C@H]1C[C@@H](C)CC(C)(C)C1 (racemic) [Example 2-7, (±) methyl 2-[4-(propan-2-yl)benzyl]-1-[(cis)-3,3,5-trimethylcyclohexyl]-1H-benzimidazole-5-carboxylate] | 330 | 3000
COC(=O)c1cc2nc(Cc3ccc(OC(F)(F)F)cc3)n([C@H]3C[C@@H](C)CC(C)(C)C3)c2cc1C (racemic) [Example 2-18, (±) methyl 6-methyl-2-[4-(trifluoromethoxy)benzyl]-1-[(cis)-3,3,5-trimethylcyclohexyl]-1H-benzimidazole-5-carboxylate] | 150 | 1800
CC(C)Oc1ccc(Cc2nc3cc(C(=O)O)ccc3n2[C@@H]2C[C@H](C)CC(C)(C)C2)cc1 (stereo in doubt) [Example 2-32] | 250 | 2700
Cc1cc2c(cc1C(=O)O)nc(Cc1ccc(OC(F)(F)F)cc1)n2[C@@H]1C[C@H](C)CC(C)(C)C1 (stereo in doubt) [Example 2-44] | 70 | 170
COC(=O)c1cc2nc(Cc3ccc(OC(F)(F)F)cc3)n([C@H]3C[C@@H](C)CC(C)(C)C3)c2cc1C (single isomer, unassigned) [Example 2-18-1, methyl 6-methyl-2-[4-(trifluoromethoxy)benzyl]-1-[(cis)-3,3,5-trimethylcyclohexyl]-1H-benzimidazole-5-carboxylate] | 140 | 2600
C[C@H]1C[C@@H](n2c(Cc3ccc(C(C)(C)C)cc3)nc3cc(C(=O)O)ccc32)CC(C)(C)C1 (stereo in doubt) [Example 2-37] | 50 | 2500
COc1cc2c(cc1C(=O)O)nc(Cc1ccc(OC(F)(F)F)cc1)n2[C@H]1C[C@@H](C)CC(C)(C)C1 (stereo in doubt) [Example 2-45-2] | 20 | 120
COc1cc2c(cc1CCC(=O)O)nc(Cc1ccc(OC(F)(F)F)cc1)n2[C@@H]1C[C@H](C)CC(C)(C)C1 (racemic) [Example 2-50] | 30 | 210
Cc1cc2c(cc1CCC(=O)O)nc(Cc1ccc(OC(F)(F)F)cc1)n2[C@@H]1C[C@H](C)CC(C)(C)C1 (stereo in doubt) [Example 2-49] | 80 | 280
CC(C)Oc1ccc(Cc2nc3cc(C(=O)O)ccc3n2[C@@H]2C[C@H](C)CC(C)(C)C2)cc1 (stereo in doubt) [Example 2-32-1] | 450 | –
Cc1cc2c(cc1C(=O)O)nc(Cc1ccc(OC(F)(F)F)cc1)n2[C@H]1C[C@@H](C)CC(C)(C)C1 (stereo in doubt) [Example 2-44-2] | 130 | 2600
COc1cc2c(cc1C(=O)O)nc(Cc1ccc(OC(F)(F)F)cc1)n2[C@@H]1C[C@H](C)CC(C)(C)C1 (single isomer, unassigned) [Example 2-45-1] | 300 | 1600
COC(=O)c1ccc2c(c1)nc(Cc1ccc(C(F)(F)F)cc1)n2[C@H]1C[C@@H](C)CC(C)(C)C1 (racemic) [Example 2-8, (±) methyl 2-[4-(trifluoromethyl)benzyl]-1-[(cis)-3,3,5-trimethylcyclohexyl]-1H-benzimidazole-5-carboxylate] | 1500 | –
C[C@H]1C[C@@H](n2c(Cc3ccc(F)cc3)nc3cc(C(=O)O)ccc32)CC(C)(C)C1 (stereo in doubt) [Example 2-35] | 1300 | –
C[C@H]1C[C@@H](n2c(Cc3ccc(C(F)(F)F)cc3)nc3cc(C(=O)O)ccc32)CC(C)(C)C1 (stereo in doubt) [Example 2-34] | 120 | 1900
CC(C)Oc1cc2c(cc1C(=O)O)nc(Cc1ccc(OC(F)(F)F)cc1)n2[C@@H]1C[C@H](C)CC(C)(C)C1 (stereo in doubt) [Example 2-46-1] | 120 | 600
C[C@@H]1C[C@H](n2c(Cc3ccc(C(F)(F)F)cc3)nc3cc(C#N)ccc32)CC(C)(C)C1 (racemic) [Example 2-26, (±) 2-[4-(trifluoromethyl)benzyl]-1-[(cis)-3,3,5-trimethylcyclohexyl]-1H-benzimidazole-5-carbonitrile] | 700 | –
CC1(C)CC(n2c(Cc3ccc(OC(F)(F)F)cc3)nc3c(F)c(CCC(=O)O)ccc32)CC(C)(C)C1 [Example 2-52, 3-{4-fluoro-1-(3,3,5,5-tetramethylcyclohexyl)-2-[4-(trifluoromethoxy)benzyl]-1H-benzimidazol-5-yl}Propanoic Acid] | 80 | 1800

Compound | IC50 [1] [nM] | IC50 [2] [nM]
Cc1cc2c(cc1C(=O)O)nc(Cc1ccc(OC(F)(F)F)cc1)n2[C@@H]1C[C@H](C)CC(C)(C)C1 (stereo in doubt) [Example 2-44-1] | 20 | 400
COC(=O)c1cc2nc(Cc3ccc(OC(F)(F)F)cc3)n([C@H]3C[C@@H](C)CC(C)(C)C3)c2cc1C (single isomer, unassigned) [Example 2-18-2, methyl 6-methyl-2[4-(trifluoromethoxy)benzyl]-1-[(cis)-3,3,5-trimethylcyclohexyl]-1H-benzimidazole-5-carboxylate] | 1200 | –
COC(=O)c1ccc2c(c1)nc(C(C)(C)c1ccc(OC(F)(F)F)cc1)n2[C@H]1C[C@@H](C)CC(C)(C)C1 (racemic) [Reference compound 2-5, (±) methyl 2-{2-[4-(trifluoromethoxy)phenyl]propan-2-yl}-1-[(cis)-3,3,5-trimethylcyclohexyl]-1H-benzimidazole-5-carboxylate, reference compound] | > 10000 | –
CC1(C)CC(n2c(Cc3ccc(OC(F)(F)F)cc3)nc3c(F)c(C(=O)O)ccc32)CC(C)(C)C1 [Example 2-48] | 80 | 800
C[C@H]1C[C@@H](n2c(Cc3ccccc3)nc3cc(C(=O)O)ccc32)CC(C)(C)C1 (stereo in doubt) [Example 2-38] | 2400 | –
COc1cc2c(cc1C(=O)O)nc(Cc1ccc(OC(F)(F)F)cc1)n2[C@@H]1C[C@H](C)CC(C)(C)C1 (racemic) [Example 2-45] | 30 | 160
COc1cc2c(cc1CCC(=O)O)nc(Cc1ccc(OC(F)(F)F)cc1)n2[C@@H]1C[C@H](C)CC(C)(C)C1 (single isomer, unassigned) [Example 2-50-1] | 200 | 3600
COC(=O)c1ccc2c(c1)nc(Cc1ccccc1OC(F)(F)F)n2[C@@H]1C[C@H](C)CC(C)(C)C1 (racemic) [Example 2-13, (± methyl 2-[2-(trifluoromethoxy)benzyl]-1-[(cis)-3,3,5-trimethylcyclohexyl]-1H-benzimidazole-5-carboxylate] | 10000 | –
CC(C)Oc1cc2c(cc1C(=O)O)nc(Cc1ccc(OC(F)(F)F)cc1)n2[C@@H]1C[C@H](C)CC(C)(C)C1 (stereo in doubt) [Example 2-46] | 330 | 1500
Cc1[nH]c2ccc(F)cc2c1Cc1nc2cc(C(=O)O)ccc2n1[C@@H]1C[C@H](C)CC(C)(C)C1 (stereo in doubt) [Example 2-42] | 7000 | –
COC(=O)c1ccc2c(c1)nc(-c1ccc(OC(F)(F)F)cc1)n2[C@H]1C[C@@H](C)CC(C)(C)C1 (racemic) [Example 2-1, (±) methyl 2-[4-(trifluoromethoxy)phenyl]-1-[(cis)-3,3,5-trimethylcyclohexyl]-1H-benzimidazole-5-carboxylate] | 9900 | –
COc1cc2c(cc1CCC(=O)O)nc(Cc1ccc(OC(F)(F)F)cc1)n2[C@H]1C[C@@H](C)CC(C)(C)C1 (stereo in doubt) [Example 2-50-2] | 20 | 380
COC(=O)c1ccc2c(c1)nc(C(C)c1ccc(OC(F)(F)F)cc1)n2[C@H]1C[C@@H](C)CC(C)(C)C1 (relative stereo) [Reference compound 2-4, methyl 2-{1-[4-(trifluoromethoxy)phenyl]ethyl}-1-[(cis)-3,3,5-trimethylcyclohexyl]-1H-benzimidazole-5-carboxylate, reference compound] | > 10000 | –
COC(=O)c1ccc2c(c1)nc(Cc1ccc(OC(F)(F)F)cc1)n2[C@H]1C[C@@H](C)CC(C)(C)C1 (single isomer, unassigned) [Example 2-3-1, methyl 2-[4-(trifluoromethoxy)benzyl]-1-[(cis)-3,3,5-trimethylcyclohexyl]-1H-benzimidazole-5-carboxylate] | 1700 | –
C[C@H]1C[C@@H](n2c(Cc3cn(C)c4ccccc34)nc3cc(C(=O)O)ccc32)CC(C)(C)C1 (stereo in doubt) [Example 2-43] | 6600 | –
COC(=O)c1ccc2c(c1)nc(-c1ccc(OC(F)(F)F)cc1)n2[C@H]1C[C@@H](C)CC(C)(C)C1 (single isomer, unassigned) [Example 2-1-2, methyl 2-[4-(trifluoromethoxy)phenyl]-1-[(cis)-3,3,5-trimethylcyclohexyl]-1H-benzimidazole-5-carboxylate] | 5700 | –
COC(=O)c1ccc2c(c1)nc(Cc1ccc(OC(F)(F)F)cc1)n2[C@H]1C[C@@H](C)CC(C)(C)C1 (single isomer, unassigned) [Example 2-3-2, methyl 2-[4-(trifluoromethoxy)benzyl]-1-[(cis)-3,3,5-trimethylcyclohexyl]-1H-benzimidazole-5-carboxylate] | 610 | –
